Results reported in US12220466B2, “Pharmaceutical formulation” (Cutting Edge Technology, LLC, priority 2016, dated 2025).

Tests used:
[1] = system: spirochetes and motile rods in subgingival plaques; details: up to 12 weeks; cited from earlier work
[2] = system: gram-negative anaerobes and spirochetes; details: cited from earlier work
pocket epithelium [3] = details: monkey, in vivo; cited from earlier work
pocket epithelium [4] = details: cited from earlier work
periodontitis = assay: Extensive in vivo administration of viscous tetracycline and 10% carbamide peroxide gel with mechanical debridement (Phase I-III)
Protocol: Each of the subjects had up to 6 or more recorded pocket sites, which can have up to 32 teeth and other parameters of periodontal disease recordings as well as health recordings in their patient records.
During Phase I treatments of periodontitis, a gel solution including 10% carbamide peroxide was applied directly to the periodontal pocket and pocket areas immediately followed by or preceded by 30-600 mg or more of pure topical tetracycline in powder or paste form, also applied directly to the pocket and pocket treatment areas together with the gel solution. The gel solution and the tetracycline were also applied to teeth directly. Tetracycline was added at intervals throughout the treatment. Treatment was performed on pockets from 3 mm up to 10 mm and more.
When pocket tissue was swollen, the 10% carbamide peroxide penetrated the deep pocket under the gum. The 10% carbamide peroxide was in the form of a viscous gel and was applied to the wound site or pocket using a periodontal probe, for example, or using a curet or scaler. For example, one or two drops from a squeeze-bottle applicator was applied to the end of end of a curette tip or scaler or was applied with a periodontal pocket measuring probe. The peroxide gel was also applied under artificial teeth and implants, for example under restorative bridges such as pontic areas, whether with implants or natural teeth. […]

## OCl [sodium hypochlorite]
[1]
  percentages of spirochetes and motile rods versus scaling and root planing alone: no difference at any time between therapies
[2]; in vivo
  duration of the decrease: 30 to 90 days
[2]; patients under 18 years, no scaling and root planing
  number of gram-negative anaerobes and spirochetes: significant decrease
Pocket epithelium [3]
  time to nearly complete healing without irreparable damage: 11 days
  time to reformation of epithelial lining: 3 days
  time to removal of most of the necrotic layer: 16 h
Pocket epithelium [4]; in vivo
  time to restoration of epithelial lining: 7 days
Pocket epithelium [4]; one minute application, neutralization, six curette strokes
  removal of pocket epithelium (histological): complete removal of pocket epithelium with normal healing

## CN(C)[C@@H]1C(O)=C(C(N)=O)C(=O)[C@@]2(O)C(O)=C3C(=O)c4c(O)cccc4[C@@](C)(O)[C@H]3C[C@@H]12 [tetracycline]
periodontitis; in vivo
  in office patient complaints: to taste, not pain
periodontitis; patient population
  allergic reaction with topical use: No true allergic reaction
